System: HFD-fed C57BL/6J mice
Assay: Untargeted cortex LC-MS metabolomics
Format: in vivo
Conditions: cortex of HFD-fed mice
Method: Plasma and Cortex LC-MS Metabolomics. The left and right sides of the cortex were pooled and ground using liquid nitrogen. Cortex samples (approximately 30 mg) were extracted as previously described with slight modifications. Tissues were homogenized with 600 μL of cold 80% acetonitrile with 0.1% formic acid containing 0.2 μg/mL of dopamine-d4 (Sigma-Aldrich, St Louis, MO, USA) and 0.2 μg/mL of chlorpropamide (Sigma-Aldrich, St Louis, MO, USA) using a counter-top bullet blender for 2 min and centrifuged at 20 000 rpm for 10 minutes. Supernatants were transferred to high performance liquid chromatography (HPLC) vials for analysis.
LC-high-resolution mass spectrometry/MS. Data dependent acquisition in both negative and positive ion mode was conducted using a Shimadzu Nexera UPLC system coupled to an AB SCIEX TripleTOF 5600 mass spectrometer (AB SCIEX, Toronto, Canada). Chromatographic separation was conducted using an Inertsil Phenyl-3 column (4.6×150 mm, 100 Å, 5 μm; GL Sciences, Tokyo, Japan). Spray voltage was −4200 V for negative ion mode and 4500 V for positive ion mode acquisition. The injection volume was 3 μL. Metabolite identifications were performed using Progenesis QI software (V2.4.6911) with METLIN plugin V1.0.6499 (NonLinear Dynamics, United Kingdom). Progenesis QI was used for peak picking, retention time correction, data normalization, peak alignment, and metabolite annotations. Metabolites were detected in both ion modes; the one with the lowest coefficient of variation of the QC was kept.

COc1cc(O)c(CC=C(C)C)c(O)c1C(=O)/C=C/c1ccc(O)cc1 [XN, xanthohumol]
Ion intensities, Mean: 1,2-DIPALMITOYL-SN-GLYCEROL: 934.62 | Ion intensities, Mean: 1-Arachidonoyl-glycerophosphoinositol: 645.87 | Ion intensities, Mean: 1-Palmitoyl-2-linoleoyl PE: 1782.31 | Ion intensities, Mean: 2-Pyrrolidinone: 1091.46 | Ion intensities, Mean: 2′-DEOXYURIDINE 5′-MONOPHOSPHATE: 615.86 | Ion intensities, Mean: 3-Methyl-L-histidine: 495.48 | Ion intensities, Mean: 3-PHOSPHO-GLYCERIC ACID: 2094.74 | Ion intensities, Mean: 5-Acetylamino-6-amino-3-methyluracil: 108.09 | Ion intensities, Mean: 5-Methylcytidine: 6615.71 | Ion intensities, Mean: 12-HYDROXYDODECANOIC-ACID: 2479.58 | Ion intensities, Mean: 20-Hydroxy-PGE2: 9703.49 | Ion intensities, Mean: 27-Hydroxycholesterol: 17882.79 | Ion intensities, Mean: ADENOSINE: 42044.83 | Ion intensities, Mean: ADENOSINE 5′-DIPHOSPHORIBOSE: 2010.85 | Ion intensities, Mean: ADENOSINE 5′-MONOPHOSPHATE: 75745.39 | Ion intensities, Mean: ADENOSINE-5′-DIPHOSPHOGLUCOSE: 924.21 | Ion intensities, Mean: ADP: 1070.27 | Ion intensities, Mean: AMINOADIPATE: 211.18 | Ion intensities, Mean: ASCORBATE: 2138.35 | Ion intensities, Mean: ASPARTATE: 1174.88 | Ion intensities, Mean: Acetylcarnitine: 11173.39 | Ion intensities, Mean: Acetylcholine: 1788.61 | Ion intensities, Mean: Adenine: 1575.62 | Ion intensities, Mean: Adenylosuccinate: 482.18 | Ion intensities, Mean: Adenylsuccinic acid: 1871.57 | Ion intensities, Mean: Arachidonic acid: 25496.26 | Ion intensities, Mean: Arachidonic acid ethyl ester: 417.92 | Ion intensities, Mean: Arginine: 1863.90 | Ion intensities, Mean: Aspartic acid: 8381.28 | Ion intensities, Mean: BILIVERDIN: 251.38 | Ion intensities, Mean: CARNITINE: 11992.59 | Ion intensities, Mean: CDP-Ethanolamine: 303.02 | Ion intensities, Mean: CHENODEOXYCHOLATE: 5290.32 | Ion intensities, Mean: CITRATE: 997.79 | Ion intensities, Mean: CMP: 586.09 | Ion intensities, Mean: Carnosine: 929.30 | Ion intensities, Mean: Choline: 7326.72 | Ion intensities, Mean: Creatine: 81660.56 | Ion intensities, Mean: Cysteineglutathione disulfide: 1321.30 | Ion intensities, Mean: Cytidine: 766.86 | Ion intensities, Mean: Cytidine 2′,3′-cyclic phosphate: 419.79 | Ion intensities, Mean: Cytidine diphosphate choline (CDPcholine): 2132.21 | Ion intensities, Mean: D-GLUCOSE 6-PHOSPHATE: 54.37 | Ion intensities, Mean: D-Glucaro-1,4-lactone: 1852.68 | Ion intensities, Mean: D-RIBOSE 5-PHOSPHATE: 119.65 | Ion intensities, Mean: DESMOSTEROL: 16777.33 | Ion intensities, Mean: DIHYDROOROTATE: 129.45 | Ion intensities, Mean: Deoxycytidine: 405.53 | Ion intensities, Mean: Deoxyguanosine: 2552.08 | Ion intensities, Mean: Docosahexaenoic acid: 3528.63 | Ion intensities, Mean: Docosenamide: 22701.50 | Ion intensities, Mean: Dodecanedioic acid: 332.32 | Ion intensities, Mean: ERUCIC ACID: 114.42 | Ion intensities, Mean: ETHANOLAMINE PHOSPHATE: 361.87 | Ion intensities, Mean: Ergothioneine: 433.26 | Ion intensities, Mean: Ethyl nicotinate: 74.78 | Ion intensities, Mean: GLUTAMIC ACID: 7047.98 | Ion intensities, Mean: GLUTAMINE: 18241.11 | Ion intensities, Mean: GUANOSINE 5′-MONOPHOSPHATE: 2052.93 | Ion intensities, Mean: Glutamate: 45779.91 | Ion intensities, Mean: Glutathione: 194624.55 | Ion intensities, Mean: Glycerophosphocholine: 104911.40 | Ion intensities, Mean: Guanosine monophosphate: 482.20 | Ion intensities, Mean: HEPTADECANOATE: 24.77 | Ion intensities, Mean: HISTIDINE: 901.19 | Ion intensities, Mean: Homocarnosine: 433.96 | Ion intensities, Mean: Homoserine: 952.74 | Ion intensities, Mean: Hydroxybutyric acid: 2561.64 | Ion intensities, Mean: Hydroxyphenethylamine: 3489.46 | Ion intensities, Mean: Hypoxanthine: 100.45 | Ion intensities, Mean: Hypusine: 94.62 | Ion intensities, Mean: ISOCITRIC ACID: 2099.31 | Ion intensities, Mean: ISOLEUCINE: 1271.60 | Ion intensities, Mean: Indoleacetaldehyde: 565.25 | Ion intensities, Mean: Inosine: 1426.47 | Ion intensities, Mean: Inosine 5′-monophosphate (IMP): 3551.74 | Ion intensities, Mean: Isostearic acid: 2314.30 | Ion intensities, Mean: L-2-Amino-5-hydroxypentanoicacid: 1771.05 | Ion intensities, Mean: L-OLEOYL-RAC-GLYCEROL: 3415.51 | Ion intensities, Mean: LACTATE: 3374.25 | Ion intensities, Mean: LAUROYLCARNITINE: 384.69 | Ion intensities, Mean: LEUKOTRIENE B4: 49.50 | Ion intensities, Mean: LYSINE: 51.50 | Ion intensities, Mean: Lathosterol: 23593.87 | Ion intensities, Mean: Lipoamide: 70.91 | Ion intensities, Mean: MALATE: 1271.76 | Ion intensities, Mean: Methionine: 1365.89 | Ion intensities, Mean: Methylthioadenosine: 2473.94 | Ion intensities, Mean: Myristoylcarnitine: 1742.03 | Ion intensities, Mean: N,N-dimethyl-Safingol: 638.46 | Ion intensities, Mean: N-(1-Deoxy-1-fructosyl) serine: 3036.19 | Ion intensities, Mean: N-ACETYL-L-ASPARTICACID: 24960.43 | Ion intensities, Mean: N-ACETYLNEURAMINATE: 817.62 | Ion intensities, Mean: N-Acetyl-Glutamic acid: 154.68 | Ion intensities, Mean: N-Acetyl-L-alanine: 1997.71 | Ion intensities, Mean: N-Acetylaspartylglutamic acid: 2179.47 | Ion intensities, Mean: N-Acetylglutamine: 273.18 | Ion intensities, Mean: N-Acetylisoputreanine: 99.54 | Ion intensities, Mean: N-Acetyllactosamine: 308.43 | Ion intensities, Mean: N-Linoleoyl GABA: 57.01 | Ion intensities, Mean: N-Methyl-Glutamate: 2277.43 | Ion intensities, Mean: N-a-Acetyl-Arginine: 175.03 | Ion intensities, Mean: NAD: 532.29 | Ion intensities, Mean: NE,NE,NE-TRIMETHYLLYSINE: 2830.12 | Ion intensities, Mean: Niacinamide: 4607.66 | Ion intensities, Mean: Nicotinamide adenine dinucleotide (NAD): 2094413 | Ion intensities, Mean: O-Phosphoethanolamine: 497.23 | Ion intensities, Mean: Octadecenoic acid: 202.97 | Ion intensities, Mean: Oleamide: 4025.45 | Ion intensities, Mean: Oxidized glutathione: 2115.40 | Ion intensities, Mean: PALMITATE: 1472.32 | Ion intensities, Mean: PALMITOLEIC ACID: 62.02 | Ion intensities, Mean: PANTOTHENIC ACID: 442.74 | Ion intensities, Mean: PETROSELINIC ACID: 220.71 | Ion intensities, Mean: PHENYLALANINE: 2371.34 | Ion intensities, Mean: PHENYLETHANOLAMINE: 1245.94 | Ion intensities, Mean: Phenylpropionylglycine: 294.60 | Ion intensities, Mean: Phosphocholine: 18574.78 | Ion intensities, Mean: Phosphodimethyl-ethanolamine: 161.80 | Ion intensities, Mean: Pipecolic acid: 422.43 | Ion intensities, Mean: Propionylcarnitine: 571.28 | Ion intensities, Mean: Pyridoxamine-5′-Phosphate: 377.92 | Ion intensities, Mean: RAC-GLYCEROL-L-MYRISTATE: 293.55 | Ion intensities, Mean: S-Adenosylhomocysteine: 397.04 | Ion intensities, Mean: S-Adenosylmethionine: 11562.08 | Ion intensities, Mean: SERINE: 355.32 | Ion intensities, Mean: SUCCINATE: 362.22 | Ion intensities, Mean: Spermic acid 1: 178.91 | Ion intensities, Mean: Spermidine: 5406.36 | Ion intensities, Mean: Sphinganine: 34.01 | Ion intensities, Mean: Sphinganine 1-phosphate: 2568.50 | Ion intensities, Mean: Sphingosine: 1322.46 | Ion intensities, Mean: Stearoylglycerophosphoserine: 2006.21 | Ion intensities, Mean: Succinyladenosine: 192.45 | Ion intensities, Mean: TAURINE: 6070.22 | Ion intensities, Mean: THEOPHYLLINE: 18.71 | Ion intensities, Mean: TRYPTOPHAN: 1131.43 | Ion intensities, Mean: Tetradecanedioic acid: 125.75 | Ion intensities, Mean: Tetrahydrodeoxycortisol: 3344.70 | Ion intensities, Mean: Threoninyl-Alanine: 227.23 | Ion intensities, Mean: Tyrosine: 4311.01 | Ion intensities, Mean: URIDINE: 1155.56 | Ion intensities, Mean: URIDINE 5′-DIPHOSPHOGALACTOSE: 462.04 | Ion intensities, Mean: URIDINE-5-MONOPHOSPHATE: 2103.27 | Ion intensities, Mean: Undecanedicarboxylic acid: 236.12 | Ion intensities, Mean: Uracil: 201.36 | Ion intensities, Mean: Uridine 5′-diphosphate: 248.01 | Ion intensities, Mean: Xanthine: 137.03 | Ion intensities, Mean: cyclic GMP-AMP: 1495.60 | Ion intensities, Mean: diethyltoluamide: 8.44 | Ion intensities, Mean: docosa-hexaenoic acid: 3095.80 | Ion intensities, Mean: hydroxyhexadecanoyl carnitine: 1430.92 | Ion intensities, Mean: hydroxyvitamin D3: 16859.40 | Ion intensities, Mean: sn-glycero-3-Phosphoethanolamine: 737.74
